# Where two headings read alike, the source gives them in different places.
# How the values were obtained:
# KRAS^G12C CRC = test: Phase 1/1b study: tumor response per RECIST 1.1 in KRAS G12C CRC; format: in vivo, human
# Description: (§1) This Example describes the study design of a Phase 1/1b study of Compound A in patients with advanced KRAS^G12C solid tumors with the first patient dosed in September 2022. There are two components in this study: Part 1—Dose Escalation and Part 2—Dose Expansion (FIG. 1). In Part 1—Dose Escalation, an assessment of safety and tolerability are conducted, and the candidate recommended Phase 2 dose and schedule (RP2DS) are determined for further testing in the Dose Expansion Part. Part 2 of the study evaluates the safety and antitumor effects of the candidate RP2DS in KRAS^G12C-mutant solid tumors.
# (§2) Subjects are assessed for response using Response Evaluation Criteria in Solid Tumors (version 1.1) (RECIST [v1.1]). All subjects with previous or current, known or suspected brain metastases must have a magnetic resonance imaging (MRI) of the brain (unless contraindicated) performed within 28 days prior to the first dose of Compound A (C1D1). Disease response for clinical management of subjects were assessed per RECIST (v1.1).
# (§3) Patients with previously treated, advanced […] solid tumors received escalating doses of Compound A. Doses included 50 mg, 100 mg, and 200 mg once daily (QD) and 100 mg, 200 mg, 300 mg, and 400 mg twice daily (BID). Each cycle had 21 days, with efficacy assessed every 6 weeks. Additional patients were enrolled to backfill cohorts at dose levels that cleared dose-limiting toxicity evaluation to further characterize PK, safety, and anti-tumor activity of Compound A as described in Example 1.
# [1] = system: xenograft models of human KRAS^G12C cancers; test: Xenograft / preclinical models of KRAS G12C cancers; format: in vivo
# [2] = system: human cancer cell lines harboring the KRAS^G12C mutation; test: Growth suppression and apoptosis in KRAS G12C cancer cell lines; format: cell-based; settings: multiple human cancer cell lines harboring KRAS^G12C
# KRAS^G12C NSCLC = test: Phase 1/1b study: tumor response per RECIST 1.1 in KRAS G12C NSCLC; format: in vivo, human; settings: for patients who responded (response rate): all doses
# Description: as §1, §2, §3
# [3] = Phase 1/1b study: Compound A pharmacokinetics in patients; format: in vivo, human; settings: for Tmax / half-life: human, oral, plasma; for Tmax: read-out: median Tmax
# Description: as §1
# Whole-blood samples were collected from all subjects to measure Compound A concentrations, circulating tumor deoxyribonucleic acid (ctDNA) and other biomarkers. Samples for pharmacodynamic assays collected in Cycle 1 and beyond. Paired pretreatment and on treatment fresh tumor samples collected from any subject if consent is obtained and at the discretion of the treating physician. Optional collection of pre-study treatment fresh biopsy should be performed prior to C1D1 dosing. An optional on-study treatment biopsy may be obtained with subject consent and at the discretion of the treating physician. The primary purpose of the optional on-study treatment biopsies is to assess pharmacodynamic markers and previously acquired pre-study treatment markers of resistance. Biopsy assessment with study intervention treatment over time may also help with better understanding of the shift in mutational profile with study treatment, as well as cellular clonality changes over time. Where tumor tissue allows, predictive biomarkers of response are explored.
# Initially Compound A will be administered orally QD for a treatment cycle of 21 days. BID dosing be administered to subjects who are enrolled into Dose level 3 and higher dose levels during escalation as well. For subjects on BID dosing, the second dose of Compound A is administered approximately 10 to 12 hours after the first dose is administered.
# as §3
# [4] = Phase 1/1b study: safety, treatment-related adverse events; format: in vivo, human
# Description: as §1
# Safety assessments and procedures were performed. Real-time safety monitoring is performed to ensure that the protocol-specified dose modification guidelines are followed. In addition, C1 safety and available PK and pharmacodynamic data reviewed and evaluated at each Compound A dose level/schedule to determine whether enrollment into the next higher dose-level cohort could proceed. A modified schedule evaluated in which Compound A may be administered more or less frequently than once daily (QD). The totality of the data from dose escalation cohorts is reviewed and one or more candidate RP2DS for expansion in Part 2 can be recommended.
# as §3
# [5] = FIG. 3, CRC naive to KRAS^G12C(OFF) inhibitor, RECIST 1.1
# [6] = 47 patients, all doses, as of Aug. 8, 2023
structure (smiles),measurement,setting,value
"CCn1c(-c2cccnc2[C@H](C)OC)c2c3cc(ccc31)N1CCO[C@@H](C[C@H](NC(=O)[C@H](C(C)C)N(C)C(=O)C3(F)CCN(C(=O)C#CC(C)(C)N(C)C)CC3)C(=O)N3CCC[C@H](N3)C(=O)OCC(C)(C)C2)C1 (atropisomer, axis not shown) [Compound A]",disease control rate,"KRAS^G12C CRC; CRC, not previously treated with G12C(OFF) inhibitor",80%
same,patients with partial response,"KRAS^G12C CRC; CRC, not previously treated with G12C(OFF) inhibitor, 8 of 20, as of Oct. 5, 2023",40%
same,"confirmed PR, number of patients",KRAS^G12C CRC; [5],5
same,"unconfirmed PR, number of patients",KRAS^G12C CRC; [5],3
same,response in preclinical models compared to adagrasib,[1]; compared to the KRAS^G12C(OFF) inhibitor adagrasib,"superior response rate, deeper regressions and longer duration of response"
same,anti-tumor activity in vivo,[1]; multiple xenograft models of human KRAS^G12C cancers,dose-dependent and durable tumor regressions
same,effect on cancer cell lines in vitro,[2],growth suppression and apoptosis
same,"confirmed PR, number of patients","KRAS^G12C NSCLC; FIG. 2, NSCLC, RECIST 1.1",5
same,"unconfirmed PR, number of patients","KRAS^G12C NSCLC; FIG. 2, NSCLC, RECIST 1.1",3
same,disease control rate,"KRAS^G12C NSCLC; NSCLC, both sets of patients (G12C(OFF) inhibitor naive and pretreated)",100%
same,patients who responded (response rate),"KRAS^G12C NSCLC; NSCLC, not previously treated with G12C(OFF) inhibitor, three of seven, as of Oct. 5, 2023",43%
same,patients who responded (response rate),"KRAS^G12C NSCLC; NSCLC, previously treated with G12C(OFF) inhibitor, 5 of 10, as of Oct. 5, 2023",50%
same,Tmax,"[3]; 13 subjects, data as of May 15, 2023",1 h
same,half-life,"[3]; 13 subjects, data as of May 15, 2023, read-out: terminal half-life in the plasma",< 3 h
same,Tmax,"[3]; patients, data as of Aug. 8, 2023",1 h
same,half-life,"[3]; patients, data as of Aug. 8, 2023, read-out: terminal half-life (converted)",1.8 h
same,exposure,"[3]; patients, escalating oral doses 50 mg QD to 400 mg BID",dose-dependent exposure
same,AUC,[3]; range of 50-200 mg,increased in a dose-dependent manner
same,Cmax,[3]; range of 50-200 mg,increased in a dose-dependent manner
same,mean accumulation ratio (C1D15 AUC vs C1D1 AUC),[3]; repeated daily dosing,less than 2 ×
same,"Gr3 TRAE QTc prolongation, number of patients",[4]; 200 mg BID,1 patients
same,"Gr3 TRAE QTc prolongation, number of patients",[4]; 300 mg,1 patients
same,"Gr3 TRAE QTc prolongation, number of patients",[4]; 400 mg BID,3 patients
same,"TRAE QTc prolongation, patients",[4]; [6],21%
same,"TRAE diarrhea, patients",[4]; [6],30%
same,"TRAE fatigue, patients",[4]; [6],15%
same,"TRAE nausea, patients",[4]; [6],34%
same,"TRAE vomiting, patients",[4]; [6],15%
same,"Gr3 TRAE QTc prolongation, number of patients",[4]; all doses,5 patients
same,treatment-emergent AE that led to treatment discontinuation,[4]; all doses,No patients
same,treatment-related Gr4 or 5 AE,[4]; all doses,No patients
same,treatment-related ≥Gr3 hepatotoxicity,[4]; all doses,No treatment-related ≥Gr3 hepatotoxicity was observed
same,patients with average QTc interval >501 ms,[4]; out of the 5 patients with Gr3 QTc prolongation,one

# — US20250049810A1, “METHODS OF TREATING A RAS PROTEIN-RELATED DISEASE OR DISORDER” (Revolution Medicines, Inc., priority 2023, published 2025)
